Here are results for 13 compounds from patent publication US20230172885A1, “THIOL-CONTAINING COMPOUNDS FOR USE IN TREATING CORONAVIRUS” (priority 2020, published 2023).

Entries after “also recorded” stand apart in the source; their conditions may differ. Read-outs that look alike come from different tables or passages of the source.

The conditions of data set [1]: cited from earlier work.
Data set [2] relates to SARS-2-S pseudovirus (rVSV-ΔG luciferase). In kind it is cell-based. The following applies: pseudovirus pre-incubated with 1.56-100 mM drug for 2 hours, 66-fold dilution.
The target in data set [3] is T1, RBD^original (SARS-CoV-2 receptor binding domain) binding to ACE2 (Severe acute respiratory syndrome coronavirus 2, UniProt P0DTC2).
T1 construct: ACRO Biosystems); purchased ACRO Biosystems
The following applies: for inhibition of binding of RBD^original to ACE2: RBD exposed to drug for 60 minutes, 0 to 20 mM; for binding of RBD^original to ACE2 at one and two hours post exposure and wash: drug at 5 mM for 1 hour, three washes.

The test system of data set [4] is SARS-CoV-2, isolate USA-WA1/2020. Type of data set: cell-based.
Data set [5] concerns SARS-CoV-2.
In data set [6] the test system is SARS CoV2 (isolate USA-WA1/2020). More on the design: species or system Syrian hamsters (Mesocricetus auratus). To be noted: hamster, in vivo.
In data set [7] the target is T2, SARS-CoV-2 spike protein (SARS-2-S) binding to ACE2 (Severe acute respiratory syndrome coronavirus 2, UniProt P0DTC2).
T2 construct: Recombinantly expressed RBD of SARS-2-S was first immobilized to a surface

The subject of data set [8] is VSV pseudotype bearing the SARS-2-S protein (VSV-S). In kind it is cell-based, SARS-CoV-2.
The format of data set [9] is physicochemical. To be noted: 11 mg/mL in 20 mM sodium citrate, pH 4.5, 38.5 mM NaCl; Aerogen Solo vibrating mesh nebulizer.

For the compound `OCC(S)CS` (stereo not shown) [2,3-Dimercaprol], in [1] (dithiol drugs, second thiol), the “pKa (thiol group)” value is 10.6.
Regarding `NCCCNCCSP(=O)(O)O` [Amifostine], the “pseudovirus cell entry, pseudovirus pre-treatment” value (from here on “pseudovirus cell entry”) in [2] is recorded as “did not inhibit viral cell entry”.
Take `CC(C)(S)C(=O)N[C@@H](CS)C(=O)O` [Bucillamine]: the “pKa (thiol group)” value was 8.4 in data set [1] and 10.2 in [1] (dithiol drugs, second thiol).
For `N[C@@H](CSCC(=O)O)C(=O)O` [Carbocysteine], the “pseudovirus cell entry” value in data set [2] is recorded as “did not inhibit viral cell entry”.
Turning to `NCCS` [Cysteamine], in [3], the “inhibition of binding of RBD^original to ACE2” value (“inhibition of binding … to ACE2” for short) is recorded as “decreased binding; also recorded: strong inhibitory effects”; the “binding of RBD^original to ACE2 at one and two hours post exposure and wash” value is on record as “binding inhibition was retained for two hours”. The “pseudovirus cell entry” value in data set [2] was “decrease the entry efficiency”. The “cytopathic effects (CPE) in virus-infected cells, virus exposed to drug prior to infection” value in data set [4] is recorded as “inhibit live virus infection; also recorded: significantly inhibited”. The “potency among thiol drugs in the in vitro assays” value in data set [5] is given as “most potent thiol drug”. Moreover, in data set [6], the “SARS-CoV2 viral titers (viral RNA, RT-qPCR) in lungs” value is “did not decrease; also recorded: does not decrease”; the “interleukin-6 levels in lung lavage” value is recorded as “lower than control”; the “lung weights normalized to terminal body weights” value is recorded as “lower than in control groups”; the “lymphocytes in BAL fluid” value was “decreases”. Further, in data set [6], the “neutrophils in BAL fluid” value is reported as “decreases”, the “severity of SARS-CoV2 lung inflammation” value was “did decrease; also recorded: decreased; also recorded: has anti-inflammatory effects” and the “total leukocyte counts in the bronchoalveolar lavage (BAL) fluid” value is “lower than control”. Further, in data set [1], the “pKa (thiol group)” value is listed as 8.2.
`O=C(O)C(S)C(S)C(=O)O` (stereo not shown) [Dimercaptosuccinic acid]: the “pKa (thiol group)” value was 8.9 in data set [1] and 10.8 in data set [1] (dithiol drugs, second thiol).
`N[C@@H](CCC(=O)N[C@@H](CS)C(=O)NCC(=O)O)C(=O)O` [Glutathione]: the “pKa (thiol group)” value in [1] is listed as 9.2.
Regarding `O=S(=O)([O-])CCS.[Na+]` [MESNA, 2-mercaptoethane sulfonate, sodium salt], in data set [3], the “inhibition of binding … to ACE2” value is reported as “strong inhibitory effects”; the “binding of RBD^original to ACE2 at one and two hours post exposure and wash” value is “binding inhibition was retained for two hours”. The “antiviral efficacy in vitro compared with NAC” value in data set [5] is recorded as “superior antiviral efficacy in vitro”.
Consider `O[C@@H]1[C@@H](O)[C@@H](O[C@H]2O[C@H](CS)[C@@H](O)[C@H](O)[C@H]2O)O[C@H](CS)[C@H]1O` [MUC-31, 6,6′-dithiotrehalose], for which, in data set [7], the “binding inhibition after drug is washed out of the reaction mixture” value was “binding inhibition persists following drug contact”, the “inhibition of binding of ACE2 to SARS-2-S” value is given as “inhibit binding” and the “potency in inhibiting ACE2 binding compared to NAC” value is “stronger potency”. In [8], the “effectiveness for inhibiting viral entry compared with NAC” value is “more effective than NAC”; the “inhibition of VSV-S cellular entry” value was “inhibited VSV-S cellular entry; also recorded: inhibited from entering”; the “inhibition of VSV-S entry, all three concentrations” value is reported as “potent inhibition”. In addition, in data set [3], the “inhibition of binding … to ACE2” value is given as “decreased binding; also recorded: strong inhibitory effects”; the “binding of RBD^original to ACE2 at one and two hours post exposure and wash” value is “binding inhibition was retained for two hours”. The “pseudovirus cell entry” value in [2] is given as “decrease the entry efficiency”. Further, the “cytopathic effects (CPE) in virus-infected cells, virus exposed to drug prior to infection” value in data set [4] is on record as “inhibit live virus infection; also recorded: significantly inhibited”. For the same compound, in [6] (0.5 mg/kg), the “SARS-CoV2 viral titers (viral RNA, RT-qPCR) in lungs” value is “decreases; also recorded: significantly lower”; the “interleukin-6 levels in lung lavage” value was “lower than control”; the “lung weights normalized to terminal body weights” value was “lower than in control groups”; the “macrophages in BAL fluid” value is recorded as “decreases”. Also, in data set [6] (0.5 mg/kg), the “severity of SARS-CoV2 lung inflammation” value is “decreased; also recorded: limit SARS-COV-2-associated lung inflammation” and the “total leukocyte counts in the bronchoalveolar lavage (BAL) fluid” value is “lower than control”. Further, the “average mass median aerodynamic diameter (MMAD) of the exposure atmosphere” value in [9] is 2.60 µm.
On to `CC(=O)N[C@@H](CS)C(=O)O` [NAC, N-acetyl-L-cysteine], for which the “inhibition of binding of ACE2 to SARS-2-S” value in data set [7] is reported as “inhibit binding”. Besides, in data set [8], the “cell entry inhibition of VSV-S, only 5 and 25 mM” value is reported as “significant cell entry inhibition”; the “inhibition of VSV-S cellular entry” value is “inhibited VSV-S cellular entry; also recorded: inhibited from entering”.
For `CC(C)(S)[C@@H](N)C(=O)O` [Penicillamine], the “pKa (thiol group)” value in data set [1] is 10.5.
As to `CC(S)C(=O)NCC(=O)O` (stereo not shown) [Tiopronin], in data set [1], the “pKa (thiol group)” value is reported as 8.7.
As for `NCCCNCCS` [WR-1065], in [3], the “inhibition of binding … to ACE2” value was “strong inhibitory effects”; the “binding of RBD^original to ACE2 at one and two hours post exposure and wash” value was “binding inhibition was retained for two hours”. Besides, the “pKa (thiol group)” value in [1] is recorded as 7.7 (WR-1065).
